Data from patent publication US4098798A, “Adriamycins, process for their preparation and uses thereof” (Societa' Farmaceutici Italia S.p.A., priority 1974, dated 1978).
Values after ≈ are worked out from the molar mass of the structure shown. Where two headings read alike, the source gives them in different places.

Legend:
B-subtilis = assay: inhibition zones on agar-B-subtilis plates, paper disc technique; type: cell-based; settings: hydrochlorides, read-out: inhibition zone diameter; for zone of inhibition at 10 µg/disc: 10 μg; for zone of inhibition at 20 µg/disc: 20 μg
[1] = tested on: Transplanted Gross Leukemia; assay: Action on Transplanted Gross Leukemia in mice; type: in vivo, C3 H/He mice; settings: first to fifth day
Text: Inbred C3 H/He mice were intravenously inoculated with […] leukemia cells/mouse and treated, intravenously, from the first to the fifth day after inoculation with the compounds under examination.

L1210 Leukemia = assay: Action on L1210 Leukemia in mice; type: in vivo, BDF1 mice; settings: 5 times every two hours on days 1 and 2
Text: Inbred BDF1 mice were intraperitoneally inoculated with 10^5 leukemia cells/mouse, and then treated (intraperitoneally) 5 times (every two hours) on days 1 and 2 after the tumor inoculation with varying doses of the compounds under examination.

Ascites Sarcoma 180 = assay: Action on Ascites Sarcoma 180 in mice; type: in vivo, mice (Swiss CD 1); settings: for Average Survival time: one day after inoculation, untreated = 100%
Protocol: The tests were carried out on groups of 10 mice (Swiss CD 1). The compounds under examination were administered intraperitoneally in varying doses to the test animals one day after intraperitoneal inoculation with 1 × 10^6 tumor cells per animal. The average survival time is given in Table 1 as a percentage of the survival time of untreated animals, which is arbitrarily designated as 100%. Also given in Table 1 are the number of long term survivors.

Solid Sarcoma 180 = assay: Activity on Solid Sarcoma 180 in mice; type: in vivo, Swiss CD 1 mice; settings: for % Inhibition tumor growth: 10th day
[2] = tested on: Moloney Sarcoma Virus (MSV); assay: MSV foci formation in infected mouse embryo fibroblast cultures (antiviral action); type: cell-based; settings: 72 h, treatment of 3 days, read-out: Antiviral Action ID50
Protocol: (§1) The test compounds were evaluated on mouse embryo fibroblast cultures infected with MSV and on similar uninfected cultures. After a treatment of 3 days, the inhibiting doses (ID50) were evaluated on cell proliferation in uninfected cultures (cytotoxic action) and on MSV foci formation in infected cultures (antiviral action).

HeLa cells = assay: Cloning Efficiency of Hela cells in vitro; type: cell-based; settings: for IC50: Homo sapiens, HeLa, 50% inhibition of colonies
Protocol: After treatment for 2,8 or 24 hours, HeLa cells were seeded (200 cells per plate) and the number of colonies determined 8 days later.
The ID50 represents the dose which gives a 50% of inhibition of colonies.

[3] = Cardiotoxic activity in vitro, beating of myocardial cells; type: cell-based, mice; settings: mouse, 0.5 μg/ml, read-out: decrease of beating
[4] = cell proliferation in uninfected mouse embryo fibroblast cultures (cytotoxic action); type: cell-based; settings: mouse embryo fibroblasts, treatment of 3 days, read-out: Cytotoxic Action ID50
Protocol: as §1

[5] = 1.25 mg/Kg subcutaneously every 2 hrs for 5 times at days 1 and 3
[6] = 1.75 mg/Kg subcutaneously every 2 hrs for 5 times at days 1 and 3
[7] = 2 mg/Kg intravenously twice a day on days 1,2,3
[8] = 2.45 mg/Kg subcutaneously every 2 hrs for 5 times at days 1 and 3
[9] = 2.5 mg/Kg intravenously once a day on days 1,2,3,4,5
[10] = 2.5 mg/Kg intravenously twice a day on days 1,2,3
[11] = 3 mg/Kg intravenously twice a day on days 1,2,3

Compound: COc1cccc2c1C(=O)c1c(O)c3c(c(O)c1C2=O)C[C@@](O)(C(=O)CO)C[C@@H]3O[C@@H]1C[C@H](N)[C@@H](O)[C@H](C)O1 [4'-epi-adriamycin (β-anomer), 7-0-(3'-amino-2',3',6'-trideoxy-β-L-arabinohexopyranosyl)-adriamycinone]
- zone of inhibition at 5 µg/disc (B-subtilis; 5 μg): 15 mm
- zone of inhibition at 10 µg/disc (B-subtilis): 15.5 mm
- zone of inhibition at 15 µg/disc (B-subtilis; 15 μg): 16 mm
- zone of inhibition at 20 µg/disc (B-subtilis): 17 mm

Compound: COc1cccc2c1C(=O)c1c(O)c3c(c(O)c1C2=O)C[C@@](O)(C(=O)CO)C[C@@H]3O[C@H]1C[C@H](N)[C@H](O)[C@H](C)O1 [Adriamycin, 7-0-(3'-amino-2',3',6'-trideoxy-α-L-lyxohexopyranosyl)-adriamycinone]
- Long Term Survivors (after 60 days) ([1]; 2 mg/Kg i.v.): 0/10
- Average Survival time, Exp. 1 ([1]; 2 mg/Kg i.v.): 183%
- Long Term Survivors (after 60 days) ([1]; 2.5 mg/Kg i.v.): 0/20
- Average Survival time, Exp. 1 ([1]; 2.5 mg/Kg i.v.): 208%
- Average Survival time, Exp. 2 ([1]; 2.5 mg/Kg i.v.): 186%
- Long Term Survivors (after 60 days) ([1]; 2.75 mg/Kg i.v.): 0/10
- Average Survival time, Exp. 1 ([1]; 2.75 mg/Kg i.v.): 208%
- Long Term Survivors (after 60 days) ([1]; 3 mg/Kg i.v.): 0/10
- Average Survival time, Exp. 2 ([1]; 3 mg/Kg i.v.): 186%
- Long Term Survivors (after 60 days) ([1]; 3.6 mg/Kg i.v.): 0/10
- Average Survival time, Exp. 2 ([1]; 3.6 mg/Kg i.v.): 200%
- zone of inhibition at 10 µg/disc (B-subtilis): 21 mm
- zone of inhibition at 20 µg/disc (B-subtilis): 23 mm
- Average Survival time (L1210 Leukemia; 0.75 mg/Kg i.p.): 160%
- Average Survival time (L1210 Leukemia; 1 mg/Kg i.p.): 155%
- Long Term Survivors (after 60 days) (L1210 Leukemia; 1 mg/Kg i.p.): 1/10
- Average Survival time (L1210 Leukemia; 1.25 mg/Kg i.p.): 175%
- Long Term Survivors (after 60 days) (Ascites Sarcoma 180; 1 mg/Kg i.p.): 0/10
- Average Survival time (Ascites Sarcoma 180; 1 mg/Kg i.p.): 169%
- Long Term Survivors (after 60 days) (Ascites Sarcoma 180; 5 mg/Kg i.p.): 2/10
- Average Survival time (Ascites Sarcoma 180; 5 mg/Kg i.p.): 276%
- Average Survival time (Solid Sarcoma 180; [5]): 112%
- Toxic Deaths (at 10th day) (Solid Sarcoma 180; [5]): 0/10
- % Inhibition tumor growth (Solid Sarcoma 180; [5]): 69%
- Average Survival time (Solid Sarcoma 180; [6]): 87%
- Toxic Deaths (at 10th day) (Solid Sarcoma 180; [6]): 1/10
- % Inhibition tumor growth (Solid Sarcoma 180; [6]): 75%
- Average Survival time (Solid Sarcoma 180; [7]): 100%
- Toxic Deaths (at 10th day) (Solid Sarcoma 180; [7]): 1/10
- % Inhibition tumor growth (Solid Sarcoma 180; [7]): 70%
- Average Survival time (Solid Sarcoma 180; [8]): 32%
- Toxic Deaths (at 10th day) (Solid Sarcoma 180; [8]): 6/10
- Toxic Deaths (at 10th day) (Solid Sarcoma 180; [9]): 0/10
- % Inhibition tumor growth (Solid Sarcoma 180; [9]): 54%
- Average Survival time (Solid Sarcoma 180; [10]): 100%
- Toxic Deaths (at 10th day) (Solid Sarcoma 180; [10]): 2/10
- % Inhibition tumor growth (Solid Sarcoma 180; [10]): 71%
- Average Survival time (Solid Sarcoma 180; [11]): 57%
- Toxic Deaths (at 10th day) (Solid Sarcoma 180; [11]): 6/10
- Toxic Deaths (at 10th day) (Solid Sarcoma 180; 3.5 mg/Kg intravenously once a day on days 1,2,3,4,5): 7/10
- IC50 [2]: 0.005 µg/mL (≈ 0.0092 µM)
- IC50 (HeLa cells; Table 7, 2h treatment, read-out: DI50 (the source's name)): 0.17 µg/mL (≈ 0.313 µM)
- IC50 (HeLa cells; Table 7, 8h treatment, read-out: DI50 (the source's name)): 0.14 µg/mL (≈ 0.258 µM)
- IC50 (HeLa cells; Table 7, 24h treatment, read-out: DI50 (the source's name)): 0.016 µg/mL (≈ 0.0294 µM)
- IC50 (HeLa cells; Table 8, 2h treatment, read-out: DI 50 (the source's name)): 0.35 µg/mL (≈ 0.644 µM)
- IC50 (HeLa cells; Table 8, 8h treatment, read-out: DI 50 (the source's name)): 0.18 µg/mL (≈ 0.331 µM)
- IC50 (HeLa cells; Table 8, 24h treatment, read-out: DI 50 (the source's name)): 0.125 µg/mL (≈ 0.23 µM)
- Average Number of Colonies (HeLa cells; Table 7, 0.05 μg/ml, 24h, control 223): 76
- Average Number of Colonies (HeLa cells; Table 7, 0.1 μg/ml, 2h, control 132): 79
- Average Number of Colonies (HeLa cells; Table 7, 0.1 μg/ml, 8h, control 125): 73
- Average Number of Colonies (HeLa cells; Table 7, 0.1 μg/ml, 24h, control 223): 48
- Average Number of Colonies (HeLa cells; Table 7, 0.25 μg/ml, 2h, control 132): 46
- Average Number of Colonies (HeLa cells; Table 7, 0.25 μg/ml, 8h, control 125): 38
- Average Number of Colonies (HeLa cells; Table 7, 0.25 μg/ml, 24h, control 223): 20
- Average Number of Colonies (HeLa cells; Table 7, 0.5 μg/ml, 2h, control 132): 42
- Average Number of Colonies (HeLa cells; Table 7, 0.5 μg/ml, 8h, control 125): 16
- Average Number of Colonies (HeLa cells; Table 7, 0.5 μg/ml, 24h, control 223): 0
- Average Number of Colonies (HeLa cells; Table 7, 1 μg/ml, 2h, control 132): 21
- Average Number of Colonies (HeLa cells; Table 7, 1 μg/ml, 8h, control 125): 8
- Average Number of Colonies (HeLa cells; Table 7, 1 μg/ml, 24h, control 223): 0
- Average Number of Colonies (HeLa cells; Table 8, 0.125 μg/ml, 2h, control 156): 166
- Average Number of Colonies (HeLa cells; Table 8, 0.125 μg/ml, 24h, control 136): 69
- Average Number of Colonies (HeLa cells; Table 8, 0.25 μg/ml, 2h, control 156): 92
- Average Number of Colonies (HeLa cells; Table 8, 0.25 μg/ml, 8h, control 189): 28
- Average Number of Colonies (HeLa cells; Table 8, 0.25 μg/ml, 24h, control 136): 43
- Average Number of Colonies (HeLa cells; Table 8, 0.5 μg/ml, 2h, control 156): 27
- Average Number of Colonies (HeLa cells; Table 8, 0.5 μg/ml, 8h, control 189): 14
- inhibition at 2 h [3]: 50%
- CC50 at 72 h [4]: 0.01 µg/mL (≈ 0.0184 µM)
